Tests used:
Format in all cases: cell-based
Settings in all cases: ACV 100 μmol/l, MOI 0.01, titer 24 hpi
HSV-1 strain Kupka [1] = experiment: In vitro antiviral activity, treatment of Vero cells, plaque assay
Description: (§1) • A. Vero cells were seeded in 24-well plates and treated with dilutions of the ECAS 2 Dil.1:1 and Dil.1:2, either: • I. 24 hours before the infection; • II. 2 hours before the infection; • III. during the infection; • IV. 2 hours post infection; or • V. 6 hours post infection.
(§2) The cells were infected with the HSV-1 strains Kupka and ANGpath at a multiplicity of infection (MOI) of 0.01. The cells were collected 24 hours post infection (hpi) and the virus titer was determined by plaque assay. Briefly, the samples were serially diluted and plated onto one-day Vero cell-monolayers in 24- or 6-well tissue plates in duplicates. Afterwards, the cells were overlaid with 1% methylcellulose in normal growth media. 5 days post infection, the cells were fixed and stained with 2% crystal violet in 20% ethanol, and the individual plaques were counted to determine the virus titer in each sample. Samples without treatment (Mock, negative control) and samples treated with ACV (Acyclovir, 100 μmol/l, reference control) were handled in the same manner. The test was performed in two independent experiments, where each of the samples was tested in parallel wells. • B. The HSV-1 strains Kupka and ANGpath, were incubated at a MOI of 0.01 with dilutions of the ECAS 2 either Dil.1:1 or Dil.1:2, in a final volume of 100 μl for either: • I. 12 hours; • II. 8 hours; • III. 6 hours; or • IV. 2 hours.

HSV-1 strain ANGpath [2] = experiment: as above
Description: as §1, §2

HSV-1 strain Kupka [3] = experiment: In vitro antiviral activity, pre-incubation of virus before infection of Vero cells, plaque assay
Description: as §2
(§3) Then cells, which had been seeded in 24-well plates 24 hours before the infection, were infected with the above mentioned pre-incubated viruses. 24 hpi the cells were collected and the virus titer was determined by a plaque assay, as described above. Samples without treatment (Mock, negative control) and samples treated with Acyclovir (100 μmol/l as reference control) were handled in the same manner. The test was performed in two independent experiments, where each of the samples was tested in parallel wells.

HSV-1 strain ANGpath [4] = experiment: as above
Description: as §2, §3

[5] = cells treated 2 h before infection
[6] = cells treated 24 h before infection
[7] = virus incubated 2 h before infection
[8] = virus incubated 6 h before infection
[9] = virus incubated 8 h before infection
[10] = virus incubated 12 h before infection

## Nc1nc2c(ncn2COCCO)c(=O)[nH]1 [ACV, Acyclovir]
HSV-1 strain Kupka [1]; cells treated 2 hpi
  Reduction in viral titer: 4.52 log10
HSV-1 strain Kupka [1]; cells treated 6 hpi
  Reduction in viral titer: 3.43 log10
HSV-1 strain Kupka [1]; [5]
  Reduction in viral titer: 1.96 log10
HSV-1 strain Kupka [1]; [6]
  Reduction in viral titer: 1.96 log10
HSV-1 strain Kupka [1]; cells treated during infection
  Reduction in viral titer: 3.69 log10
HSV-1 strain ANGpath [2]; cells treated 2 hpi
  Reduction in viral titer: 2.81 log10
HSV-1 strain ANGpath [2]; cells treated 6 hpi
  Reduction in viral titer: 2.38 log10
HSV-1 strain ANGpath [2]; [5]
  Reduction in viral titer: 0.61 log10
HSV-1 strain ANGpath [2]; [6]
  Reduction in viral titer: 0.54 log10
HSV-1 strain ANGpath [2]; cells treated during infection
  Reduction in viral titer: 2.45 log10
HSV-1 strain Kupka [3]; [7]
  Reduction in viral titer: 4.62 log10
HSV-1 strain Kupka [3]; [8]
  Reduction in viral titer: 3.55 log10
HSV-1 strain Kupka [3]; [9]
  Reduction in viral titer: 5.17 log10
HSV-1 strain Kupka [3]; [10]
  Reduction in viral titer: 3.15 log10
HSV-1 strain ANGpath [4]; [7]
  Reduction in viral titer: 2.85 log10
HSV-1 strain ANGpath [4]; [8]
  Reduction in viral titer: 2.59 log10
HSV-1 strain ANGpath [4]; [9]
  Reduction in viral titer: 2.97 log10
HSV-1 strain ANGpath [4]; [10]
  Reduction in viral titer: 2.56 log10

Source: patent US12661373B2, “Electrochemically activated salt solution” (AZAD Pharma AG, priority 2018, dated 2026)
